Source: patent US20220030868A1, “FUNGICIDAL HALOMETHYL KETONES AND HYDRATES” (FMC CORPORATION, priority 2018, published 2022)

Tests used:
[1] = system: Phakopsora pachyrhizi; test: Test A: test suspension sprayed on soybean seedlings one day before inoculation with Phakopsora pachyrhizi spores (Asian soybean rust), visual disease rating; assay type: in vivo; settings: 100 = 100% disease control, 0 = no control
Source text: General protocol for preparing test suspensions for Tests A-C: the test compounds were first dissolved in acetone in an amount equal to 3% of the final volume and then suspended at the desired concentration (in ppm) in acetone and purified water (50/50 mix by volume) containing 250 ppm of the surfactant PEG400 (polyhydric alcohol esters). The resulting test suspensions were then used in Tests A-C.
The test solution was sprayed to the point of run-off on soybean seedlings. The following day the seedlings were inoculated with a spore suspension of Phakopsora pachyrhizi (the causal agent of Asian soybean rust) and incubated in a saturated atmosphere at 22° C. for 24 h, and then moved to a growth chamber at 22° C. for 8 days, after which time visual disease ratings were made.
Results for Tests A-C are given in Table A. In the Table, a rating of 100 indicates 100% disease control and a rating of 0 indicates no disease control (relative to the controls). An asterisk “*” or a double asterisk “**” next to the rating value indicates a 50 ppm or 10 ppm test suspension was used, respectively. A dash (-) indicates the compound was not tested.

[2] = system: Puccinia recondita f. sp. tritici; test: Test B: test suspension sprayed on wheat seedlings one day before inoculation with Puccinia recondita f. sp. tritici spores (wheat leaf rust), disease rating; assay type: in vivo; settings: 100 = 100% disease control, 0 = no control
Source text: General protocol for preparing test suspensions for Tests A-C: the test compounds were first dissolved in acetone in an amount equal to 3% of the final volume and then suspended at the desired concentration (in ppm) in acetone and purified water (50/50 mix by volume) containing 250 ppm of the surfactant PEG400 (polyhydric alcohol esters). The resulting test suspensions were then used in Tests A-C. The test solution was sprayed to the point of run-off on wheat seedlings. The following day the seedlings were inoculated with a spore suspension of Puccinia recondita f. sp. tritici (the causal agent of wheat leaf rust) and incubated in a saturated atmosphere at 20° C. for 24 h, and then moved to a growth chamber at 20° C. for 6 days, after which time disease ratings were made. Results for Tests A-C are given in Table A. In the Table, a rating of 100 indicates 100% disease control and a rating of 0 indicates no disease control (relative to the controls). An asterisk “*” or a double asterisk “**” next to the rating value indicates a 50 ppm or 10 ppm test suspension was used, respectively. A dash (-) indicates the compound was not tested.

Compound	Test A rating (disease control) ([1]; 10 ppm test suspension) [%]	Test B rating (disease control) ([2]; 10 ppm test suspension) [%]	also measured
C#CCOC(=O)c1cnn(Cc2ccc(OCC3(C(F)(F)F)OCCO3)cc2)c1 [compound 15]	100	0	
CCCCCCOC(=O)c1cnn(Cc2ccc(OCC3(C(F)(F)F)OCCO3)cc2)c1 [compound 16]	99	0	
O=C(OCc1ccc(Cl)c(Cl)c1)c1cnn(Cc2ccc(OCC3(C(F)(F)F)OCCO3)cc2)c1 [compound 17]	100	0	
O=C(OCc1ccc(F)c(F)c1)c1cnn(Cc2ccc(OCC3(C(F)(F)F)OCCO3)cc2)c1 [compound 18]	100	0	
CN(C)C(=O)C1=NOC(c2ccc(OCC3(C(F)(F)F)OCCO3)cc2)C1 (stereo not drawn) [compound 22]	38	0	
CCS(=O)(=O)Cc1ccc(OCC2(C(F)(F)F)OCCO2)cc1 [compound 23]	0	19	
CS(=O)(=O)c1ccc(OCC2(C(F)(F)F)OCCO2)cc1 [compound 24]	81	91	
CN(C)S(=O)(=O)c1ccc(OCC2(C(F)(F)F)OCCO2)cc1 [compound 25]	0	0	
CCOC(=O)c1cnn(C(C)c2ccc(OCC3(C(F)(F)F)OCCO3)cc2)c1 (stereo not drawn) [compound 26]	99	0	
COC(=O)NN=Cc1ccc(OCC2(C(F)(F)F)OCCO2)cc1 [compound 27]	0	0	
FC(F)(F)C1(COc2ccc(OCC3(C(F)(F)F)OCCO3)cc2)OCCO1 [compound 28]	0	0	
CCOC(=O)c1cnn(Cc2ccc(O/C=C(\OC)C(F)(F)F)cc2)c1 [compound 53]			Test A rating (disease control) ([1]; 50 ppm test suspension): 100%; Test B rating (disease control) ([2]; 50 ppm test suspension): 67%
CCOC(=O)c1cnn(Cc2ccc(O/C=C(\OCCOC)C(F)(F)F)cc2)c1 [compound 54]	0	0	
C=CCO/C(=C\Oc1ccc(Cn2cc(C(=O)OCC)cn2)cc1)C(F)(F)F [compound 55]	0	0	
C#CCO/C(=C\Oc1ccc(Cn2cc(C(=O)OCC)cn2)cc1)C(F)(F)F [compound 56]	38	0	
CCO/C(=C\Oc1ccc(S(C)(=O)=O)cc1)C(F)(F)F [compound 60]	0	0	
CCO/C(=C\Oc1ccc(S(=O)(=O)N(C)C)cc1)C(F)(F)F [compound 61]	0	0	
CCO/C(=C\Oc1ccc(CS(=O)(=O)CC)cc1)C(F)(F)F [compound 62]	0	0	
CCCO/C(=C\Oc1ccc(Cn2cc(C(=O)OCC)cn2)cc1)C(F)(F)F [compound 65]	100	0	
CCOC(=O)c1cnn(Cc2ccc(CCC3(C(F)(F)F)OCCO3)cc2)c1 [compound 67]			Test A rating (disease control) ([1]; 50 ppm test suspension): 65%; Test B rating (disease control) ([2]; 50 ppm test suspension): 0%
CCO/C(=C\Oc1ccc(C(=O)O)cc1)C(F)(F)F [compound 72]			Test A rating (disease control) ([1]; 50 ppm test suspension): 13%; Test B rating (disease control) ([2]; 50 ppm test suspension): 0%
CCO/C(=C\Oc1ccc(C(=O)OC(C)C)cc1)C(F)(F)F [compound 73]	0	0	
C=CCOC(=O)c1ccc(O/C=C(\OCC)C(F)(F)F)cc1 [compound 74]	0	0	

Compound	Test A rating (disease control) ([1]; 10 ppm test suspension) [%]	Test B rating (disease control) ([2]; 10 ppm test suspension) [%]	also measured
C#CCOC(=O)c1ccc(O/C=C(\OCC)C(F)(F)F)cc1 [compound 75]	0	0	
CC(C)CS(=O)(=O)NCc1ccc(OCC2(C(F)(F)F)OCCO2)cc1 [compound 76]	0	0	
FC(F)(F)C1(COc2ccc(CNC(=S)NC3CCCCC3)cc2)OCCO1 [compound 77]	0	0	
CCOC(=O)NCc1ccc(OCC2(C(F)(F)F)OCCO2)cc1 [compound 78]	94	0	
CCO/C(=C\Oc1ccc(C(C)=O)cc1)C(F)(F)F [compound 79]			Test A rating (disease control) ([1]; 50 ppm test suspension): 0%; Test B rating (disease control) ([2]; 50 ppm test suspension): 0%
CCOC(=O)Cc1nnn(Cc2ccc(O/C=C(\OCC)C(F)(F)F)cc2)n1 [compound 83]	82	0	
CCOC(=O)Cc1nnnn1Cc1ccc(O/C=C(\OCC)C(F)(F)F)cc1 [compound 84]	0	0	
CCO/C(=C\Oc1ccc(Cn2cncc2C(=O)OC)cc1)C(F)(F)F [compound 85]	89	0	
CCO/C(=C\Oc1ccc(Cn2cnc(C(=O)OC)c2)cc1)C(F)(F)F [compound 86]	99	0	
CCO/C(=C\Oc1ccc(Cn2ncc3cccnc32)cc1)C(F)(F)F [compound 87]	0	0	
CCO/C(=C\Oc1ccc(Cn2cc(C(=O)OC(C)(C)C)cn2)cc1)C(F)(F)F [compound 89]	0	0	
CCOC(=O)c1cc(OC)n(Cc2ccc(O/C=C(\OCC)C(F)(F)F)cc2)n1 [compound 90]	100	0	
CCO/C(=C\Oc1ccc(Cn2cc(C(=O)OC)c3ccccc32)cc1)C(F)(F)F [compound 91]	0	0	
CCO/C(=C\Oc1ccc(CN2OCC(C)(C)C2=O)cc1)C(F)(F)F [compound 92]	0	0	
O=C(O)c1cnn(Cc2ccc(OCC3(C(F)(F)F)OCCO3)cc2)c1 [compound 93]	96	0	
CCCOC(=O)c1ccc(O/C=C(\OCC)C(F)(F)F)cc1 [compound 94]	0	0	
CCOC(=O)c1ccc(O/C=C(\OCC)C(F)(F)F)cc1 [compound 95]	0	0	
CCOC(=O)C=CCOc1ccc(O/C=C(\OCC)C(F)(F)F)cc1 [compound 96]	13	0	
N#Cc1ccc(OCC2(C(F)(F)F)OCCO2)cc1 [compound 98]			Test A rating (disease control) ([1]; 250 ppm test suspension): 100%; Test B rating (disease control) ([2]; 250 ppm test suspension): 100%
CCO/C(=C\Oc1ccc(C(N)=O)cc1)C(F)(F)F [compound 99]	0	80	
CCO/C(=C\Oc1ccc(C(=O)NC2CC2)cc1)C(F)(F)F [compound 100]	0	0	
CCO/C(=C\Oc1ccc(C(=O)NC(C)C)cc1)C(F)(F)F [compound 101]	0	0	
